14 compounds from PubChem BioAssay (NCI) can be followed below.

Converted amounts (≈) assume the structure as drawn. “And” between values parts separate entries of the source, which are not always exact repeats. Equal values may be shown once.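 Cultured in 96-well plates, cells were exposed to test compound for 48 hours across five concentrations. GI50 marks 50% less growth. TGI: total growth inhibition.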 Where only a bound is given, the exact number is not on record here.

Common to all, as to test: NCI tumour cell line growth inhibition, 48 h
Experiment [1] has as its system ACHN renal.
The subject of experiment [2] is K-562 leukemia.
For experiment [3], the system named is A498 renal.
Experiment [4] has as its system OVCAR-3 ovarian.
Experiment [5] has as its system 786-0 renal.
Experiment [6] has as its system SK-OV-3 ovarian.
For experiment [7], the system named is IGROV1 ovarian.
Experiment [8] concerns TK-10 renal.
In experiment [9] the test system is SW-620 colon.
Experiment [10] concerns SNB-75 CNS.

Consider `N[C@H]1CCN(c2c(F)cc3c(=O)c(C(=O)O)cn4c3c2Oc2cc3c(ccc5ccccc53)cc2-4)C1`, for which the TGI in [1] is 8.06 µM; in [2] it was greater than 100 µM; in experiment [3] it was greater than 100 µM; in experiment [4] it was greater than 100 µM; in experiment [5] it was greater than 100 µM; in [6], greater than 100 µM. Also, the TGI in [7], in experiment [8] and in [9] was greater than 100 µM each time.
Turning to `NCCNc1nc(N2CCCC2)c2nc(Cl)c(NCc3ccccc3)nc2n1`, the TGI in [1] was determined as 3.99 µM; in experiment [2], 0.182 µM; in [3], 4.4 µM; in [10], 3.49 µM; in experiment [4], 4.16 µM; in experiment [5] it was 3.08 µM. In addition, the TGI in [6] was determined as 3.79 µM; in experiment [7], 4.7 µM; in [8], 3.25 µM; in [9] it was 4.73 µM.
`O=C(O)C(CSC(c1ccccc1)(c1ccccc1)c1ccccc1)N=Cc1cccs1` (stereo not drawn): the TGI in experiment [1] was greater than 100 µM; in experiment [2], greater than 100 µM; in [3], greater than 96.8 µM; in experiment [10], greater than 79.5 µM; in experiment [4], 19.1 µM; in experiment [5] it was greater than 53.2 µM. Besides, the TGI in [6] is greater than 67.5 µM; in experiment [7] it was greater than 100 µM; in experiment [8] it was greater than 100 µM; in experiment [9], greater than 100 µM.
On to `CC(Sc1ccccc1)C(CO)(CO)[N+](=O)[O-]` (stereo not drawn), for which the TGI worked out at 30.6 µM in [1]; 34.4 µM in experiment [2]; 35.4 µM in [10]; 29.4 µM in experiment [4]; 39.9 µM in [6]; 38 µM in experiment [7]. The results for the TGI in experiment [8] and in [9] were 33.7 µM and 28.4 µM, respectively.
Turning to `Nc1ccccc1N/C(=C\C(=O)C(Cl)(Cl)Cl)c1ccccc1`, the TGI in [1] is 75.4 µM; in [2], greater than 100 µM; in experiment [10], greater than 100 µM; in experiment [4] it was 65.2 µM; in experiment [5], 54.3 µM; in experiment [6] it was greater than 100 µM. The TGI in [7] was 71 µM; in experiment [8], greater than 100 µM; in [9], greater than 100 µM.
With `CC[C@@]1(O)C(=O)OCc2c1cc1n(c2=O)Cc2c-1nc1ccc(O)cc1c2CC[Si](C)(C)C`, the TGI in [1] was 0.363 µM; in experiment [3] it was 0.0279 µM; in experiment [4] it was 0.127 µM; in [7], 0.202 µM; in [8], 0.693 µM and 0.749 µM; in [9], greater than 100 µM.
With `O=C(CCN1CC2CCC(CC2)C1)c1cccs1`, the TGI in [1] was 33.6 µM; in [2], 44 µM; in experiment [3], greater than 100 µM; in experiment [10], 35 µM; in experiment [4], 58 µM; in experiment [5], 20.9 µM. Moreover, the TGI in experiment [6] is greater than 53.4 µM; in experiment [7], 25.8 µM; in experiment [8] it was 23.3 µM; in experiment [9], 12.2 µM.
For the compound `CN1C2CCC1C(C(O)c1ccccc1[N+](=O)[O-])C(=O)C2` (stereo not drawn), the TGI in experiment [1], in [2], in experiment [3], in [4], in [5] and in experiment [6] was greater than 100 µM in each case. Further, the TGI in experiment [7], in [8] and in experiment [9] was greater than 100 µM throughout.
Regarding `COC(=O)C1C(C)N1C` (stereo not drawn), the TGI in experiment [2], in [10], in experiment [4], in [6], in experiment [7] and in [8] was greater than 100 µM throughout. The compound further returned a TGI in experiment [9] greater than 100 µM.
On to `CC(=O)N(C)c1ccc2c(ccc[n+]2[O-])c1[N+](=O)[O-]`, for which the TGI in experiment [1], in experiment [2], in [3], in [10], in [4] and in experiment [5] was greater than 100 µM throughout. For the same compound, the TGI in [7], in experiment [8] and in [9] was greater than 100 µM throughout.
`O=[n+]1c2c(n([O-])c3ccccc31)-c1cccc3cccc-2c13`: the TGI in [1] is greater than 100 µM; in [2], greater than 100 µM; in [3], greater than 100 µM; in experiment [10], 94.7 µM; in experiment [4], greater than 100 µM; in experiment [8], greater than 100 µM. In experiment [9], the TGI was greater than 100 µM.
Consider `Nc1ccc2c(c1)C(=O)N(O)C2=O`, for which the TGI in experiment [1], in [2], in [3], in experiment [10], in experiment [4] and in [6] was greater than 100 µM each time. Besides, the TGI in experiment [7], in experiment [8] and in experiment [9] was greater than 100 µM in each case.
For the compound `C[C@]12CC[C@@H]3c4ccccc4CC[C@H]3[C@@H]1CC[C@@H]2O`, the TGI in experiment [1], in [2], in experiment [10], in [4], in experiment [5] and in experiment [6] was greater than 100 µM each time. The TGI in [7], in experiment [8] and in experiment [9] was greater than 100 µM throughout.
With `CC1(C)CC(=O)C2=C(C1)NC(SSC1=C(C#N)C(c3ccc(F)cc3)C3=C(CC(C)(C)CC3=O)N1)=C(C#N)C2c1ccc(F)cc1` (stereo not drawn), the GI50 was 28.7 µg/mL (≈ 43.8 µM) in experiment [1]; 17.1 µg/mL (≈ 26.1 µM) in experiment [2]; 41.3 µg/mL (≈ 63.1 µM) in experiment [10]; 25.6 µg/mL (≈ 39.1 µM) in [4]; 15 µg/mL (≈ 22.9 µM) in experiment [6]; 15 µg/mL (≈ 22.9 µM) in [7]. In addition, the values for the GI50 in experiment [8] and in experiment [9] were 23.6 µg/mL (≈ 36.1 µM) and 6.93 µg/mL (≈ 10.6 µM), respectively. Also, the TGI was 53.7 µg/mL in experiment [1]; greater than 150 µg/mL in experiment [2]; greater than 150 µg/mL in experiment [10]; 46.1 µg/mL in experiment [4]; 15 µg/mL in [6]; 15 µg/mL in experiment [7]. Moreover, the figures for the TGI in experiment [8] and in experiment [9] were 46 µg/mL and 25 µg/mL, respectively.
